Reference: patent publication US20260092054A1, “FUSED RING COMPOUND AND PHARMACEUTICAL CONTAINING SAME” (KAKEN PHARMACEUTICAL CO., LTD., priority 2022, published 2026)

Key:
[1] = molecular target: T1, human STAT6/pIL-4Rα (Homo sapiens, UniProt P42226); test: Binding inhibitory activity between human STAT6/pIL-4Rα by fluorescence polarization method; settings: rhSTAT6 (123-658) / FAM-pIL-4Rα peptide
T1 construct: histidine tag
T1 sequence (P42226 123-658): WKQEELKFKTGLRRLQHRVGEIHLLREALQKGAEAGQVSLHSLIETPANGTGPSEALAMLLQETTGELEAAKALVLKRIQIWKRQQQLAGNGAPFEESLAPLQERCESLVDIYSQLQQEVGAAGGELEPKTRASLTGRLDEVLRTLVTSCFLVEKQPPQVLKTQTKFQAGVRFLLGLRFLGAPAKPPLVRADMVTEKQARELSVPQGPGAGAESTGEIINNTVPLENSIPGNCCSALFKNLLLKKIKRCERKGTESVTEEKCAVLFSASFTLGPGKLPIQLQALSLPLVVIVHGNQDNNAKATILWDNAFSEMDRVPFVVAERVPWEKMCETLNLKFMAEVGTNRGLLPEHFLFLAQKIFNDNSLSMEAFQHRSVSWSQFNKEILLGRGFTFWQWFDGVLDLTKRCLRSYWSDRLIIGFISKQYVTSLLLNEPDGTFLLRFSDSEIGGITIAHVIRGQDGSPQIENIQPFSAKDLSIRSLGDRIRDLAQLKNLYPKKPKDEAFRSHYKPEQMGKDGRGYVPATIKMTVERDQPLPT
Experimental: Test Example 1: Measurement of Binding Inhibitory Activity Between Human STAT6/pIL-p 4Rα by Fluorescence Polarization Method
1) Construction of Histidine Tag-Fused Recombinant Human STAT6 (123 to 658 Region)
A histidine tag-fused recombinant human STAT6 (hereinafter referred to as rhSTAT6) expression vector [plasmid DNA in which a nucleic acid sequence containing human STAT6 (123-658 region) was inserted into a pET28a(+) vector (Novagen)] was inserted into E. coli, and the cells were cultured overnight under culturing conditions at 17° C. with IPTG treatment. After disrupting E. coli with a high-pressure homogenizer (EmulsiFlex-C3, manufactured by AVESTIN, Inc.), affinity purification using Ni-NTA agarose (manufactured by Qiagen), cation exchange chromatography using HiTrap® CM-FF (manufactured by GE healthcare), and gel filtration chromatography using Superdex® 200 10/300GL (manufactured by GE healthcare) were performed to obtain rhSTAT6.
2) Measurement of Binding Inhibitory Activity Between Human STAT6/pIL-4Rα by Fluorescence Polarization Method
A DMSO solution of the example compound was diluted with an assay buffer [for example, a buffer containing 50 mmol/L NaCl, 10 mmol/L HEPES (pH 7.0), 1 mmol/L DTT, 1 mmol/L EDTA, and 0.01 vol % NP-40, and the like] to prepare a compound-added solution. The DMSO concentration in the compound addition solution was adjusted to 1 or 2 vol %. 10 μL of the compound addition solution and an assay buffer containing 1 or 2 vol % DMSO were added to each well of a 384-well plate. 5 μL of an assay buffer solution containing rhSTAT6 (rhSTAT6 concentration: for example, 1 μmol/L) or an assay buffer was added to each well of a 384-well plate. After leaving the plate at room temperature for 30 minutes in the dark, 5 μL of an assay buffer solution (FAM-pIL-4Rp concentration: for example, 80 nmol/L) containing FAM-labeled phosphorylated IL-4Rα peptide (sequence: FAM-Ala-pTyr-Lys-Pro-Phe-Gln-Asp-Leu-IIe-NH2) (hereinafter, FAM-pIL-4Rp) or an assay buffer containing 2 vol % DMSO was added to each well of the 384-well plate. The mixture was left to stand at room temperature for 30 minutes in the dark, and then centrifuged (200 g, 1 minute, room temperature). Fluorescence polarization values were measured using Infinite (registered trademark) F500 (manufactured by Tecan Japan Co., Ltd.) (Excitation: 485 nm, Emission: 535 nm). The inhibition rate of each Example compound was calculated according to the following formula using the fluorescence polarization value (A) when rhSTAT6 and FAM-pIL-4Rp were added without adding the Example compound, the fluorescence polarization value (B) when FAM-pIL-4Rp was added without adding the Example compound and rhSTAT6, and the fluorescence polarization value (C) when each Example compound, rhSTAT6, and FAM-pIL-4Rp were added.
In the evaluation of each example compound, the 50% inhibitory concentration (IC50) of each example compound was calculated from a linear function equation of a straight line connecting two points sandwiching 50%.

[2] = test system: human STAT6; test: Human STAT6 dependent reporter activity (IL-4 stimulated STAT6 reporter assay using STAT6-HEK293 cells); type: cell-based; settings: Homo sapiens, IL-4 stimulation, luciferase activity, read-out: Inhibition rate (%); for inhibition at 0.1 µM: compound 0.1 μmol/L; for inhibition at 1 µM: compound 1 μmol/L
Experimental: Test Example 2: Measurement of Human STAT6 Dependent Reporter Activity
1) Construction of Human STAT6-HEK293 Cells
HEK 293 cells maintenance cultured by [Penicillin-Streptomycin (Thermo Fisher Scientific) and FBS, 1 vol % and 10 vol % respectively added to DMEM high glucose (Thermo Fisher Scientific)](manufactured by ATCC) were collected, and suspended in 10 mL of 0.5% BSA/PBS. 1×10^6 cells were collected, the supernatant was removed by centrifuging, and the cells were suspended in 100 μL of Nucleofector solution V (manufactured by Lonza K.K.). 2 μg of STAT6 vector [plasmid DNAs incorporating human STAT6 sequences in pcDNA3.1 (Invitrogen)] was added, and the STAT6 vector was introduced into the HEK293 cells using the program Q-001 initially registered in the Nucleofector®2b. A cell line (STAT6-HEK293 cells) consistently expressing STAT6 was acquired by selecting resistant cells in a medium containing Geneticin® (manufactured by Thermo Fisher Scientific). 2) STAT6 reporter assay using STAT6-HEK293 cells 3×10^6 STAT6-HEK293 cells maintained in assay medium [culture medium supplemented with 1 vol % Geneticin®] were harvested and seeded in a 10 cm dish. 3 μg of a STAT6 reporter vector [plasmid in which a sequence containing a STAT6 binding sequence and a C/EBP binding sequence in tandem was incorporated into pGL4.27 (manufactured by Promega Corporation)] and 9 μL of FuGENE® HD transfection reagent (manufactured by Promega Corporation) were added to 500 μL of Opti-MEM® (manufactured by Thermo Fisher Scientific) to prepare transfection solutions. The transfection solution was vortexed and left to stand for about 5 minutes, then added dropwise to the STAT6-HEK293 cells, which were then cultured overnight in a C02 incubator to produce STAT6 reporter cells.
The prepared STAT6 reporter cells were seeded on B&W isoplate-96 TC (PerkinElmer Japan Co., Ltd.) (3×10^4 cells/50 μL/well) and cultured overnight in a C02 incubator (37° C., 5% C02). 50 μL of assay medium was added to each well instead of the STAT6 reporter cells. The compound addition solution was prepared by diluting the DMSO solution of the example compound 250-fold using the assay medium. 20 μL of compound addition solution or 0.4 vol % DMSO-containing assay medium was added to the plate, and the plate was then cultured in a CO2 incubator for 1 hour. 10 μL of 80 ng/mL human IL-4 solution (Peprotech) or assay medium was added to each well, and the cells were cultured in a CO2 incubator for 6 hours.
STAT6 reporter activity was measured using the Bright-Glo® Luciferase Assay System (Promega). 100 μL of Bright-Glo® reagent was added to each well, and luciferase activity was measured using Infinite® F500. The inhibition rate of each Example compound was calculated by the following formula using the luciferase activity value (G) when no Example compound was added and stimulation with IL-4 was performed, the luciferase activity value (H) when no Example compound was added and stimulation with IL-4 was not performed, and the luciferase activity value (I) when each Example compound was treated and stimulation with IL-4 was performed.
Note that the viable cell rate under each condition was 70% or more, and it was determined that the luciferase activity inhibitory activity of each example compound was appropriately evaluated.

Row | SMILES | IC50 [1] [nM] | inhibition at 0.1 µM [2] [%] | inhibition at 1 µM [2] [%]
1 | CCn1c(-c2ccc(N3C(=O)C(C)CC3C)cc2)nc2cc(C(F)(F)F)cc(C(=O)Nc3cccc(C(N)=O)c3)c21 (racemic) [Ex. 11] | 440 | 43 | 92
2 | CCn1c(-c2ccc(N3C(=O)C(C)CC3C)cc2)nc2cc(C(F)(F)F)cc(C(=O)Nc3cccc(C(N)=O)c3)c21 (single isomer, unassigned) [Ex. 12] | 350 | 47 | 94
3 | CC1CC(C)N(c2ccc(-c3cc4ccnc(C(=O)Nc5cccc(C(N)=O)c5F)c4n3CC3(C#N)CC3)cc2)C1=O (single isomer, unassigned) [Ex. 223] | 320 | 67 | –
4 | CCn1c(-c2ccc(-n3cnn(C)c3=O)cc2)nc2cc(C(F)(F)F)cc(C(=O)Nc3cccc(C(N)=O)c3F)c21 [Ex. 1] | 390 | 22 | 93
5 | COCCn1c(-c2ccc(-n3c(C)nn(C)c3=O)cc2)cc2cc(C(F)(F)F)cc(C(=O)Nc3cccc(C(=O)Nc4ccn(C)n4)c3)c21 [Ex. 117] | 320 | – | –
6 | CCn1c(-c2ccc(-n3c(C)nn(C)c3=O)nn2)cc2cc(C(F)(F)F)cc(C(=O)Nc3ccc(F)c(C(N)=O)c3)c21 [Ex. 128] | 570 | – | –
7 | CCn1c(-c2ccc(-n3cnn(C)c3=O)cc2)c(Cl)c2cc(C(F)(F)F)cc(C(=O)Nc3cccc(C(N)=O)c3)c21 [Ex. 141] | 910 | – | –
8 | COCCn1c(-c2ccc(-n3c(C)nn(C)c3=O)cc2)cc2cc(C(F)(F)F)cc(C(=O)Nc3cccc(C(=O)O)c3)c21 [Ex. 162] | 300 | – | –
9 | C/C=C/c1cc(C(=O)Nc2cccc(C(N)=O)c2)c2c(c1)nc(-c1ccc(N(C)C(C)=O)cc1)n2CCOC [Ex. 203] | 7060 | – | –

Continued, in another order:

Row | IC50 [1] [nM] | SMILES | inhibition at 0.1 µM [2] [%] | inhibition at 1 µM [2] [%]
10 | 280 | CCn1c(-c2ccc(N3C(=O)C(C)CC3C)cc2)nc2cc(C(F)(F)F)cc(C(=O)Nc3cccc(C(N)=O)c3F)c21 (single isomer, unassigned) [Ex. 219] | 32 | 96
11 | 360 | CC1CC(C)N(c2ccc(-c3cc4ccnc(C(=O)Nc5ccc(F)c(C(N)=O)c5)c4n3CC3(C#N)CC3)cc2)C1=O (single isomer, unassigned) [Ex. 221] | 60 | 94
12 | 490 | CCn1c(-c2ccc3c(c2)CCN3C(C)=O)nc2cc(C(F)(F)F)cc(C(=O)Nc3cccc(C(N)=O)c3F)c21 [Ex. 2] | 14 | 72
13 | 320 | CCn1c(-c2ccc(-n3c(C)nn(C)c3=O)cc2)cc2ccnc(C(=O)Nc3cccc(C(=O)O)c3)c21 [Ex. 164] | – | –
14 | 270 | COCCn1c(-c2ccc(-n3c(C)nn(C)c3=O)cc2)cc2cc(C(F)(F)F)cc(C(=O)Nc3cccc(C(=O)O)n3)c21 [Ex. 184] | – | –
